Like-named read-outs stand apart in the source and are kept apart here.
How the values were obtained:
[1] = molecular target: T1, human CA-IV (Homo sapiens, UniProt P22748); assay: Carbonic Anhydrase-IV (CA-IV) Fluorescence Polarization Assay-IC50 Determination; type: binding; settings: for inhibition at 0.2 µM: CA-IV Min dose 200 nM, read-out: CA-IV: % Inh @ Min dose
T1 construct: made in house; host or cells: Escherichia coli BL21(DE3)
Method in brief: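 IC50 values come from a fluorescence polarization read-out. The CA-IV protein was zinc-supplemented during expression and purified by cation exchange then gel filtration, ending in 25 mM Tris-HCl pH 7.0 with 100 mM NaCl at 7.0 mg/mL.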

[2] = molecular target: T2, human CA-IX (Homo sapiens, UniProt Q16790); assay: Carbonic Anhydrase-IX (CA-IX) Fluorescence Polarization Assay-IC50 Determination; type: binding; settings: read-out: CAIX IC50
T2 construct: purchased R&D Systems Inc. 2188-CA-010
Description: Carbonic Anhydrase-IX (CA-IX) Fluorescence Polarization Assay-IC50 Determination
Compounds were diluted in DMSO at the concentration of 1 mM, then 50 μM and transferred to a 96-well plate for further dilutions (1:3 dilution, 11 points) in duplicate. Final compound highest concentration in CA-IX FP assay is 1 μM. Assays were conducted in a final volume of 100 μL in 50 mM Tris/HCl (pH 7.6), 100 mM Na2SO4 and 0.005% Tween-20 in a 96-well black assay. plate. […] was used as the tracer. Binding inhibition was determined by pipetting 8 μL of human CA-IX (8 nM, R&D Systems Inc. Cat#2188-CA-010) into assay plate contained 2 μL of compound and 2 μL of tracer (2 nM) in 88 μL of assay buffer. The assay plate was incubated at room temperature for 30 minutes and read in the fluorescence polarization reader (Molecular Devices, Analyst) at 524/45 nm (excitation), 595/60 nm (emission) and 561 nm (bean splitter). […] GraphPad Prism or similar in-house software with the IC50 curve fitting using the four parameter logistic equation.

[3] = molecular target: T3, human CA-XII (Homo sapiens, UniProt O43570); assay: Carbonic Anhydrase-XII (CA-XII) Fluorimetric Assay-IC50 Determination; type: biochemical; settings: for inhibition at 1 µM: read-out: % inh CAXII @ 1 uM; for IC50: read-out: CAXII IC 50
T3 construct: made in house; host or cells: Escherichia coli AD494 (DE3)
Description: Carbonic Anhydrase-XII (CA-XII) Fluorimetric Assay-IC50 Determination
The cells were grown in LB (Biomyx) supplemented with 800 uM ZnCl2 at 37° C. until an O.D.600 of 0.7, at which point the cells were induced with 100 uM IPTG for 20 hours at 20° C. The frozen pellet was resuspended in 50 mM MES pH 6.0, 100 mM NaCl, 800 uM ZnCl2 and EDTA-Free protease inhibitors (Roche). The cells were lysed with a microfluidizer and the lysate was spun at 40,000 rpm for 45 minutes at 4° C. The soluble fraction was then put over a 100 ml SP-Sepharose High Performance (GE Healthcare) column and eluted with a 50 mM MES pH 6.0, 750 mM NaCl gradient.
Compounds were diluted in DMSO at the concentration of 1 mM, then 50 μM and transferred to a 96-well plate for further dilutions (1:3 dilution, 11 points) in duplicate. Final compound highest concentration in CA-XII Fluorimetric assay is 1 μM. Assays were conducted in a final volume of 100 μL in 50 mM Tris/HCl (pH 7.6), 100 mM Na2SO4 and 0.005% Tween-20 in a 96-well black assay plate. Fluorescein diacetate was used as the substrate. Enzyme inhibition was determined by pipetting 8 μL of human CA-XII (50 nM) into assay plate contained 2 μL of compound and 2 μL of substrate (10 μM) in 88 μL of assay buffer.

[4] = molecular target: T4, human CA-II (Homo sapiens, UniProt P00918); assay: Carbonic Anhydrase-II (CA-II) Fluorimetric Assay-IC50 Determination; type: biochemical; settings: for inhibition at 0.1 µM: CA II Min dose 100 nM
T4 construct: purchased Sigma-Aldrich C6165
Method in brief: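 Enzyme activity is read fluorimetrically at 25° C (ex 488 nm / em 538 nm) as the rate at which human CA-II hydrolyses fluorescein diacetate. The buffer is Tris/HCl (50 mM, pH 7.6) with 100 mM Na2SO4 and 0.005% Tween-20. Inhibitors run in duplicate over 11 threefold dilutions, […]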

[5] = molecular target: T4, human CA-II; assay: Carbonic Anhydrase-II (CA-II) Fluorescence Polarization Tight Binding Assay-Kd Determination; settings: read-out: CA-II Kd
Description: Assays were conducted in a final volume of 100 μL in 50 mM Tris/HCl (pH 7.6), 100 mM Na2SO4 and 0.005% Tween-20 in a 96-well black assay plate. […] The assay plate was
The Kd binding was calculated using GraphPad Prism and Morrison tight binding ligand equation.

[6] = read-out: CAII % Inh @ Min dose

T1 sequence (P22748 19-284 limits assumed): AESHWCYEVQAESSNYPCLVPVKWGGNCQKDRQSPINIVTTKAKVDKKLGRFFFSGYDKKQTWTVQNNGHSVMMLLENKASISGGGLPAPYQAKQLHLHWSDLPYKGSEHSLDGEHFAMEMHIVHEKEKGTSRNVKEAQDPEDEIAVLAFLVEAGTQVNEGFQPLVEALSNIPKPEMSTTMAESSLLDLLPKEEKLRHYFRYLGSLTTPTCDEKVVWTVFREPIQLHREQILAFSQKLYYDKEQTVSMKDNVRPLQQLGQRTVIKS
T3 sequence (O43570 30-289 limits assumed): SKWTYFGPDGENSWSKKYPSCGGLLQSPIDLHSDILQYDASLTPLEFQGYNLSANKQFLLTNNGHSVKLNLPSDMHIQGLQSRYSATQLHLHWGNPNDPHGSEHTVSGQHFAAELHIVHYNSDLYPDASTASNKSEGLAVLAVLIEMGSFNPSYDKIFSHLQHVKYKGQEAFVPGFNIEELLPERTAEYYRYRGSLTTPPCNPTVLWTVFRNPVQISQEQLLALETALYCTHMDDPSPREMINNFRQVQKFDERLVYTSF

| Compound | IC50 [2] [nM] | inhibition at 1 µM [3] [%] | IC50 [3] [nM] | also measured |
| --- | --- | --- | --- | --- |
| NS(=O)(=O)c1ccc(-n2nc(CO)cc2Cc2ccc(Cl)cc2)cc1 [qq-3a, 4-[5-(4-chlorobenzyl)-3-(hydroxymethyl)-1H-pyrazol-1-yl]benzenesulfonamide] | 13.5 |  |  | IC50 ([1]; read-out: IC50_CAIV): 284 nM |
| CCOC(=O)c1cc(C)n(-c2ccc(S(N)(=O)=O)cc2)n1 [GG-1, Ethyl 1-[4-(Aminosulfonyl)phenyl]-5-methyl-1H-pyrazole-3-carboxylate] |  | 51 | 896 | IC50 ([1]; read-out: IC50_CAIV): ≥ 5000 nM |
| Cc1nc(C(=O)O)nn1-c1ncc(S(N)(=O)=O)cn1 [Example I-5b, 1-[5-(aminosulfonyl)pyrimidin-2-yl]-5-methyl-1H-1,2,4-triazole-3-carboxylic acid] |  | 46 | > 1000 | IC50 ([4]; read-out: IC50—CAII): 57.9 nM; IC50 ([1]; read-out: IC50_CAIV): > 1000 nM |
| CN(Cc1cc(Cc2ccc(Cl)cc2)n(-c2ccc(S(N)(=O)=O)cc2)n1)C1CCCCC1 [QQ-10] | 5.18 |  |  |  |
| Cc1nc(Cc2cccc(F)c2)n(-c2ccc(S(N)(=O)=O)cc2)n1 [f-3a, 4-[5-(3-fluorobenzyl)-3-methyl-1H-1,2,4-triazol-1-yl]benzenesulfonamide] | 36.9 |  |  |  |
| NS(=O)(=O)c1ccc(-n2nc(CN3CC=CCC3)nc2Cc2cccc(Br)c2)cc1 [Example F-1z, 4-[5-(3-bromobenzyl)-3-(3,6-dihydropyridin-1(2H)-ylmethyl)-1H-1,2,4-triazol-1-yl]benzenesulfonamide] | 7.99 |  |  |  |
| CCOC(=O)c1nn(-c2ccc(S(N)(=O)=O)cc2)c2c1CNCC2 [EE-1g, ethyl 1-[4-(aminosulfonyl)phenyl]-4,5,6,7-tetrahydro-1H-pyrazolo[4,3-c]pyridine-3-carboxylate] |  | 31 | > 1000 |  |
| CCOC(=O)c1nc(Cc2ccccc2)n(-c2ccc(S(N)(=O)=O)cc2)n1 [a-4, Ethyl 1-[4-(Aminosulfonyl)phenyl]-5-benzyl-1H-1,2,4-triazole-3-carboxylate] |  | 95 | 73.8 |  |
| COCc1nc(Cc2cccc(Br)c2)n(-c2ccc(S(N)(=O)=O)cc2)n1 [f-3g, 4-[5-(3-bromobenzyl)-3-(methoxymethyl)-1H-1,2,4-triazol-1-yl]benzenesulfonamide] | 8.11 |  |  |  |
| Cc1cccc(Cc2nc(CN(C)C3CCCC3)nn2-c2ccc(S(N)(=O)=O)cc2F)c1 [Example F-1ak] | 3.83 |  |  |  |
| C[C@@H]1CN(Cc2nc(Cc3ccccc3)n(-c3ccc(S(N)(=O)=O)cc3F)n2)C[C@H](C)O1 [Example F-1, 4-(5-Benzyl-3-{[2,6-cis-dimethylmorpholin-4-yl]methyl}-1H-1,2,4-triazol-1-yl)-3-fluorobenzenesulfonamide] | 26.1 |  |  |  |
| CN(CCc1ccccc1)Cc1cn(Cc2ccccc2F)c(-c2ccc(S(N)(=O)=O)cc2)n1 [CCC-1a, 4-(1-(2-fluorobenzyl)-4-{[methyl(2-phenylethyl)amino]methyl}-1H-imidazol-2-yl)benzenesulfonamide] | 39.3 |  |  |  |
| CN(Cc1nc(Cc2ccccc2)n(-c2ccc(S(N)(=O)=O)cc2F)n1)C1CCCCC1 [Example F-1aq, 4-(5-benzyl-3-{[cyclohexyl(methyl)amino]methyl}-1H-1,2,4-triazol-1-yl)-3-fluorobenzenesulfonamide] | 9.41 |  |  |  |
| NS(=O)(=O)c1ccc(-n2ncnc2Cc2ccccc2)cc1 [Example L-1a, 4-(5-benzyl-1H-1,2,4-triazol-1-yl)benzenesulfonamide] | 35.6 |  |  |  |
| CN(C)[C@H]1CCN(C(=O)c2nc(Cc3ccccc3)n(-c3ccc(S(N)(=O)=O)cc3)n2)C1 [Example R-23, 4-(5-benzyl-3-{[(3S)-3-(dimethylamino)pyrrolidin-1-yl]carbonyl}-1H-124-triazol-1-yl)benzenesulfonamide] |  |  |  | inhibition at 0.1 µM [4, 6]: 99%; Kd [5]: 0.294 nM; inhibition at 0.2 µM [1]: 40.3%; IC50 ([1]; read-out: CA-IV IC50): 376 nM |
| CCCN(C)Cc1nc(Cc2cccc(C)c2)n(-c2ccc(S(N)(=O)=O)cc2F)n1 [Example F-1aj, 3-fluoro-4-[5-(3-methylbenzyl)-3-{[methyl(propyl)amino]methyl}-1H-1,2,4-triazol-1-yl]benzenesulfonamide] | 4.32 |  |  |  |
| CCCCN(C)Cc1nc(Cc2ccccc2)n(-c2ccc(S(N)(=O)=O)cc2F)n1 [Example G-1b, 4-(5-benzyl-3-{[butyl(methyl)amino]methyl}-1H-1,2,4-triazol-1-yl)-3-fluorobenzenesulfonamide] | 9.01 |  |  |  |
| CN(CCc1ccccc1)C(=O)c1nc(Cc2ccccc2)n(-c2ccc(S(N)(=O)=O)cc2F)n1 [Example A-1d, 1-[4-(aminosulfonyl)-2-fluorophenyl]-5-benzyl-N-methyl-N-(2-phenylethyl)-1H-1,2,4-triazole-3-carboxamide] | 2.94 |  |  |  |
| NS(=O)(=O)c1ccc(-n2nc(C(=O)NCC3CCCCC3)nc2Cc2ccccc2)cc1 [Example R-17, 1-[4-(aminosulfonyl)phenyl]-5-benzyl-N-(cyclohexylmethyl)-1H-124-triazole-3-carboxamide] |  |  |  | inhibition at 0.1 µM [4, 6]: 101%; Kd [5]: 0.067 nM; inhibition at 0.2 µM [1]: 56.9%; IC50 ([1]; read-out: CA-IV IC50): 242 nM |
| COc1cccc(CNC(=O)c2nc(Cc3ccccc3)n(-c3ccc(S(N)(=O)=O)cc3)n2)c1 [Example R-22, 1-[4-(aminosulfonyl)phenyl]-5-benzyl-N-(3-methoxybenzyl)-1H-124-triazole-3-carboxamide] |  |  |  | inhibition at 0.1 µM [4, 6]: 100%; Kd [5]: 0.091 nM; inhibition at 0.2 µM [1]: 53.6%; IC50 ([1]; read-out: CA-IV IC50): 361 nM |
| CCCCN(C)C(=O)c1nc(Cc2ccccc2)n(-c2ccc(S(N)(=O)=O)cc2F)n1 | 2.79 |  |  |  |
| NS(=O)(=O)c1ccc(-n2nc(CN3CCOCC3)c3c2CCCC3)cc1 [II-1b, 4-[3-(morpholin-4-ylmethyl)-4,5,6,7-tetrahydro-1H-indazol-1-yl]benzenesulfonamide] |  | 89 | 119 | IC50 ([1]; read-out: IC50_CAIV): ≥ 5000 nM |
| Cc1cc(C(=O)N(C)C)nn1-c1ccc(S(N)(=O)=O)cn1 [MM-1b, 1-[5-(aminosulfonyl)pyridin-2-yl]-N,N,5-trimethyl-1H-pyrazole-3-carboxamide] |  | 96 | 66.5 | IC50 ([1]; read-out: IC50_CAIV): 2390 nM |
| NS(=O)(=O)c1ccc(-n2nc(C(=O)O)nc2Cc2ccccc2)cc1 [a-5, 1-[4-(Aminosulfonyl)phenyl]-5-benzyl-1H-1,2,4-triazole-3-carboxylic acid] |  | 99 | 25.8 |  |
| NS(=O)(=O)c1ccc(-n2nc(C(=O)N(CCO)Cc3ccccc3)nc2Cc2ccccc2)cc1 [Example R-2, 1-[4-(aminosulfonyl)phenyl]-N5-dibenzyl-N-(2-hydroxyethyl)-1H-124-triazole-3-carboxamide] |  |  |  | inhibition at 0.01 µM ([4]; CA II Min dose 10 nM, read-out: CAII % Inh @ Min dose): 87%; Kd [5]: 0.621 nM; inhibition at 0.2 µM [1]: 57.7%; IC50 ([1]; read-out: CA-IV IC50): 87 nM |
| Cc1cc(C(=O)N2CCN(C)CC2)nn1-c1ccc(S(N)(=O)=O)cn1 [MM-1c, 6-{5-methyl-3-[(4-methylpiperazin-1-yl)carbonyl]-1H-pyrazol-1-yl}pyridine-3-sulfonamide] |  | 86 | 166 | IC50 ([1]; read-out: IC50_CAIV): 2950 nM |

— patent US20100256357A1, “HETEROCYCLES USEFUL AS INHIBITORS OF CARBONIC ANHYDRASE” (Agouron Pharmaceuticals, Inc., priority 2006, published 2010)
